Reference: patent US20240376097A1, “BCL-2 Inhibitor” (BeiGene Ltd., priority 2020, published 2024)

Key:
[1] = test system: BCL-2 G101V knock-in cell line H96 (derive from RS4;11); assay: Bcl 2-G101V Knock-In RS4;11 Cell Proliferation Assay; assay type: cell-based; conditions: Homo sapiens, RS4;11 Bcl-2 G101V knock-in clone H96, 48 hrs, CellTiter-GLO, read-out: Cellular proliferation assay (IC50, nM) RS4
Outline: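 CellTiter-Glo luminescence after 48 h, 37 °C compound treatment (10 concentrations, maximum 1 μM or 10 μM) gave mean IC50 values. Cells were 50,000 per well of H96, a BCL2-G101V knock-in single clone derived from RS4;11 by Cas9 editing.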

[2] = target: Recombinant human Bcl-2 protein (Homo sapiens (Human), UniProt P10415); assay: Bcl-2 TR-FRET Assay; assay type: binding; conditions: Bcl-2 wild type, TR-FRET; read-out: Biochemical assay (IC50, nM) Bcl-2 WT
Outline: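 TR-FRET read (337 nm excitation, 520/490 nm emission) after 1 h with 0.5 nM FITC-labeled Bak peptide and Tb-cryptate anti-6His antibody. Bcl-2 at 0.05 nM had been pre-incubated 0.5 h with compound. IC50 fitted by four-parameter logistic equation.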

[3] = test system: RS4;11 (BCL-2 dependent acute lymphoblastic leukemia cell line); assay: RS4;11 Cell Proliferation Assay; assay type: cell-based; conditions: Homo sapiens, RS4-11, RS4;11 cells, read-out: Cellular proliferation assay (IC50, nM) RS4
Outline: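 Viability measured via CellTiter-Glo luminescence after a 48 h, 37 °C exposure to compounds (10 points, highest 1 μM). Seeding was 50,000 RS4;11 cells per well in 10% FBS RPMI-1640; IC50 given as mean.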

[4] = target: recombinant human Bcl-2-G101V protein (Homo sapiens (Human), UniProt P10415, G101V); assay: Bcl-2-G101V TR-FRET Assay; assay type: binding; conditions: Bcl-2 G101V mutant, TR-FRET; read-out: Biochemical assay (IC50, nM) Bcl-2 G101V
Outline: (§1)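 Ex337/em490 & 520 nm TR-FRET; % inhibition of Bcl-2-G101V–ligand interaction from 490:520 ratio vs. increasing compound conc.; IC50 by 4-parameter logistic fit.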

[5] = test system: recombinant human Bcl-2-G101V protein; assay: Bcl-2-G101V TR-FRET Assay; assay type: binding; conditions: ratio of biochemical IC50 Bcl-2 G101V / Bcl-2 WT
Outline: as §1

`COc1ccc(CN2CCN(C3CC4(CCN(c5ccc(C(=O)NS(=O)(=O)c6ccc(NC[C@H]7CC[C@](C)(O)CC7)c([N+](=O)[O-])c6)c(Oc6cnc7[nH]cc(F)c7c6)c5)CC4)C3)C(c3ccccc3C(C)C)C2)cc1OC(F)F` (stereo partly drawn) [Example 159, 4-(2-(4-(3-(difluoromethoxy)-4-methoxybenzyl)-2-(2-isopropylphenyl)piperazin-1-yl)-7-azaspiro[3.5]nonan-7-yl)-2-((3-fluoro-1H-pyrrolo[2,3-b]pyridin-5-yl)oxy)-N-((4-((((1r,4r)-4-hydroxy-4-methylcyclohexyl)methyl)amino)-3-nitrophenyl)sulfonyl) benzamide] showed an IC50 [1] of 1.71 nM, an IC50 [2] of 0.12 nM and an IC50 [3] of 0.386 nM. For the same compound, the IC50 [4] was 0.4 nM and the “Ratio of Bcl-2 G101V/WT” value [5] was 3.4.
`CC(C)c1ccccc1C1CN(Cc2cccc3c2N(C)C(=O)CO3)CCN1C1CC2(CCN(c3ccc(C(=O)NS(=O)(=O)c4ccc(NC[C@H]5CC[C@](C)(O)CC5)c([N+](=O)[O-])c4)c(Oc4cnc5[nH]ccc5c4)c3)CC2)C1` (stereo partly drawn) [Example 216, 2-((1H-pyrrolo[2,3-b]pyridin-5-yl)oxy)-N-((4-((((1r,4r)-4-hydroxy-4-methylcyclohexyl)methyl)amino)-3-nitrophenyl)sulfonyl)-4-(2-(2-(2-isopropylphenyl)-4-((4-methyl-3-oxo-3,4-dihydro-2H-benzo[b] [1,4]oxazin-5-yl)methyl)piperazin-1-yl)-7-azaspiro[3.5]nonan-7-yl) benzamide] showed an IC50 [1] of 2.76 nM, an IC50 [2] of 0.19 nM and an IC50 [3] of 0.33 nM. For the same compound, the IC50 [4] was 0.81 nM and the “Ratio of Bcl-2 G101V/WT” value [5] was 4.2.
`CC(C)c1ccccc1C1CN(Cc2cccc3occc23)CCN1C1CC2(CCN(c3ccc(C(=O)NS(=O)(=O)c4ccc(NC[C@H]5CC[C@](C)(O)CC5)c([N+](=O)[O-])c4)c(Oc4cnc5[nH]ccc5c4)c3)CC2)C1` (stereo partly drawn) [Example 213, 2-((1H-pyrrolo[2,3-b]pyridin-5-yl)oxy)-4-(2-(4-(benzofuran-4-ylmethyl)-2-(2-isopropylphenyl)piperazin-1-yl)-7-azaspiro[3.5]nonan-7-yl)-N-((4-((((1r,4r)-4-hydroxy-4-methylcyclohexyl)methyl)amino)-3-nitrophenyl)sulfonyl)benzamide] was tested, and the IC50 [1] was 5.2 nM, the IC50 [2] was 0.7 nM and the IC50 [3] was 0.32 nM. The IC50 [4] was 2.6 nM and the “Ratio of Bcl-2 G101V/WT” value [5] was 3.7.
`C#Cc1cc(CN2CCN(C3CC4(CCN(c5ccc(C(=O)NS(=O)(=O)c6ccc(NC[C@H]7CC[C@](C)(O)CC7)c([N+](=O)[O-])c6)c(Oc6cnc7[nH]ccc7c6)c5)CC4)C3)C(c3ccccc3C(C)C)C2)ccc1OC` (stereo partly drawn) [Example 151, 2-((1H-pyrrolo[2,3-b]pyridin-5-yl)oxy)-4-(2-(4-(3-ethynyl-4-methoxybenzyl)-2-(2-isopropylphenyl)piperazin-1-yl)-7-azaspiro[3.5]nonan-7-yl)-N-((4-((((1r,4r)-4-hydroxy-4-methylcyclohexyl)methyl)amino)-3-nitrophenyl)sulfonyl)benzamide] was tested, and the IC50 [1] was 3.86 nM, the IC50 [2] was 0.43 nM and the IC50 [3] was 0.53 nM. For the same compound, the IC50 [4] was 2.1 nM and the “Ratio of Bcl-2 G101V/WT” value [5] was 4.9.
With `COc1cc(CN2CCN(C3CC4(C3)CN(c3ccc(C(=O)NS(=O)(=O)c5ccc(NC[C@H]6CC[C@](C)(O)CC6)c([N+](=O)[O-])c5)c(Oc5cnc6[nH]cc(F)c6c5)c3)C4)[C@H](c3ccccc3C(C)C)C2)cc2c1OCCC2(F)F` [Example 354, 4-(6-((R)-4-((4,4-difluoro-8-methoxychroman-6-yl)methyl)-2-(2-isopropylphenyl)piperazin-1-yl)-2-azaspiro[3.3]heptan-2-yl)-2-((3-fluoro-1H-pyrrolo[2,3-b]pyridin-5-yl)oxy)-N-((4-((((1r,4r)-4-hydroxy-4-methylcyclohexyl)methyl)amino)-3-nitrophenyl)sulfonyl)benzamide] the IC50 [1] was 3 nM, the IC50 [2] was 0.9 nM and the IC50 [3] was 0.14 nM. For the same compound, the IC50 [4] was 1.9 nM and the “Ratio of Bcl-2 G101V/WT” value [5] was 2.2.
With `CC(C)c1ccccc1C1CN(Cc2cccc3c2OCCC3)CCN1C1CC2(CCN(c3ccc(C(=O)NS(=O)(=O)c4ccc(NC[C@H]5CC[C@](C)(O)CC5)c([N+](=O)[O-])c4)c(Oc4cnc5[nH]ccc5c4)c3)CC2)C1` (stereo partly drawn) [Example 130, 2-((1H-pyrrolo[2,3-b]pyridin-5-yl)oxy)-4-(2-(4-(chroman-8-ylmethyl)-2-(2-isopropylphenyl)piperazin-1-yl)-7-azaspiro[3.5]nonan-7-yl)-N-((4-((((1r,4r)-4-hydroxy-4-methylcyclohexyl)methyl)amino)-3-nitrophenyl)sulfonyl)benzamide] the IC50 [1] was 2.8 nM, the IC50 [2] was 0.57 nM and the IC50 [3] was 0.34 nM. For the same compound, the IC50 [4] was 1.9 nM and the “Ratio of Bcl-2 G101V/WT” value [5] was 3.4.
In the case of `CC(C)c1ccccc1C1CN(Cc2cccc3c2CCCO3)CCN1C1CC2(CCN(c3ccc(C(=O)NS(=O)(=O)c4ccc(NC[C@H]5CC[C@](C)(O)CC5)c([N+](=O)[O-])c4)c(Oc4cnc5[nH]ccc5c4)c3)CC2)C1` (stereo partly drawn) [Example 133, 2-((1H-pyrrolo[2,3-b]pyridin-5-yl)oxy)-4-(2-(4-(chroman-5-ylmethyl)-2-(2-isopropylphenyl)piperazin-1-yl)-7-azaspiro[3.5]nonan-7-yl)-N-((4-((((1r,4r)-4-hydroxy-4-methylcyclohexyl)methyl)amino)-3-nitrophenyl)sulfonyl)benzamide], the IC50 [1] is reported as 2.8 nM, the IC50 [2] is reported as 0.57 nM and the IC50 [3] is reported as 0.34 nM. The IC50 [4] was 1.9 nM and the “Ratio of Bcl-2 G101V/WT” value [5] was 3.4.
`COc1cc(CN2CCN(C3CC4(C3)CN(c3ccc(C(=O)NS(=O)(=O)c5ccc(NC[C@H]6CC[C@](C)(O)CC6)c([N+](=O)[O-])c5)c(Oc5cnc6[nH]ccc6c5)c3)C4)[C@H](c3ccccc3C(C)C)C2)ccc1C(C)C` [Example 270, 2-((1H-pyrrolo[2,3-b]pyridin-5-yl)oxy)-N-((4-((((1r,4r)-4-hydroxy-4-methylcyclohexyl)methyl)amino)-3-nitrophenyl)sulfonyl)-4-(6-((R)-4-(4-isopropyl-3-methoxybenzyl)-2-(2-isopropylphenyl)piperazin-1-yl)-2-azaspiro[3.3]heptan-2-yl) benzamide] was tested, and the IC50 [1] was 0.64 nM, the IC50 [2] was 1.1 nM and the IC50 [3] was 0.16 nM. For the same compound, the IC50 [4] was 2.9 nM and the “Ratio of Bcl-2 G101V/WT” value [5] was 2.6.
`COc1cc(CN2CCN(C3CC4(C3)CN(c3ccc(C(=O)NS(=O)(=O)c5ccc(NC[C@H]6CC[C@](C)(O)CC6)c([N+](=O)[O-])c5)c(Oc5cnc6[nH]ccc6c5)c3)C4)[C@H](c3ccccc3C(C)C)C2)cc(F)c1OC` [Example 245, 2-((1H-pyrrolo[2,3-b]pyridin-5-yl)oxy)-4-(6-((R)-4-(3-fluoro-4,5-dimethoxybenzyl)-2-(2-isopropylphenyl)piperazin-1-yl)-2-azaspiro[3.3]heptan-2-yl)-N-((4-((((1r,4r)-4-hydroxy-4-methylcyclohexyl)methyl)amino)-3-nitrophenyl)sulfonyl)benzamide] gave an IC50 [1] of 0.53 nM, an IC50 [2] of 0.13 nM and an IC50 [3] of 0.15 nM. The IC50 [4] was 0.32 nM and the “Ratio of Bcl-2 G101V/WT” value [5] was 2.5.
For `CCc1ccc(CN2CCN(C3CC4(C3)CN(c3ccc(C(=O)NS(=O)(=O)c5ccc(NC[C@H]6CC[C@](C)(O)CC6)c([N+](=O)[O-])c5)c(Oc5cnc6[nH]ccc6c5)c3)C4)[C@H](c3ccccc3C(C)C)C2)cc1OC` [Example 271, 2-((1H-pyrrolo[2,3-b]pyridin-5-yl)oxy)-4-(6-((R)-4-(4-ethyl-3-methoxybenzyl)-2-(2-isopropylphenyl)piperazin-1-yl)-2-azaspiro[3.3]heptan-2-yl)-N-((4-((((1r,4r)-4-hydroxy-4-methylcyclohexyl)methyl)amino)-3-nitrophenyl)sulfonyl)benzamide], the IC50 [1] was 0.4 nM, the IC50 [2] was 0.47 nM and the IC50 [3] was 0.11 nM. For the same compound, the IC50 [4] was 1.5 nM and the “Ratio of Bcl-2 G101V/WT” value [5] was 3.1.
`COc1cc(CN2CCN(C3CC4(CCN(c5ccc(C(=O)NS(=O)(=O)c6ccc(NC[C@H]7CC[C@](C)(O)CC7)c([N+](=O)[O-])c6)c(Oc6cnc7[nH]cc(F)c7c6)c5)CC4)C3)[C@H](c3ccccc3C(C)C)C2)ccc1C(F)F` [Example 287] gave an IC50 [1] of 0.55 nM, an IC50 [2] of 0.87 nM and an IC50 [3] of 0.16 nM. The IC50 [4] was 2.3 nM and the “Ratio of Bcl-2 G101V/WT” value [5] was 2.6.
Compound `COc1ccc(CN2CCN(C3CC4(CCN(c5ccc(C(=O)NS(=O)(=O)c6ccc(NC[C@H]7CC[C@](C)(O)CC7)c([N+](=O)[O-])c6)c(Oc6cnc7[nH]ccc7c6)c5)CC4)C3)C(c3ccccc3C(C)C)C2)cc1OC(F)(F)F` (stereo partly drawn) [Example 163, 2-((1H-pyrrolo[2,3-b]pyridin-5-yl)oxy)-N-((4-((((1r,4r)-4-hydroxy-4-methylcyclohexyl)methyl)amino)-3-nitrophenyl)sulfonyl)-4-(2-(2-(2-isopropylphenyl)-4-(4-methoxy-3-(trifluoromethoxy)benzyl)piperazin-1-yl)-7-azaspiro[3.5]nonan-7-yl)benzamide] has an IC50 [1] of 9.2 nM, an IC50 [2] of 1.3 nM and an IC50 [3] of 1.08 nM. The IC50 [4] was 5.5 nM and the “Ratio of Bcl-2 G101V/WT” value [5] was 4.3.
